Assay results from ChEMBL document CHEMBL3045484, “Molecular modeling and synthesis of ZINC02765569 derivatives as protein tyrosine phosphatase 1B inhibitors: lead optimization study” (Med Chem Res, 2013).

Key:
[1] = target: T1, Tyrosine-protein phosphatase non-receptor type 1 (Rattus norvegicus) (UniProt P20417); assay: Inhibition of PTP1B in Rattus norvegicus (rat) L6 cells assessed as increase in 2-deoxy-D-[U-14C]-glucose uptake at 50 uM after 18 hr relative to control; format: cell-based
T1 sequence (whole entry): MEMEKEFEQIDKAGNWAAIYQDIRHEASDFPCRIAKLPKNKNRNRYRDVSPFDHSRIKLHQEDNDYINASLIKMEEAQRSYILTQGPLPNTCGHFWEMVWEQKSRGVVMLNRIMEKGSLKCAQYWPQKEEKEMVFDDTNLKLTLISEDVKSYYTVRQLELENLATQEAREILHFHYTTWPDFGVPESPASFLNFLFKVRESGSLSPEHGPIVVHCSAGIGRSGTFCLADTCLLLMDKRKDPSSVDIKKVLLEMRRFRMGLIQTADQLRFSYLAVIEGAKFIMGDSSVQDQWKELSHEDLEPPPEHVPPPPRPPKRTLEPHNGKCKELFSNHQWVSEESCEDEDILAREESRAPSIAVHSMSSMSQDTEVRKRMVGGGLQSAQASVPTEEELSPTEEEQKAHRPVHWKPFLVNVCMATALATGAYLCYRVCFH

[2] = target: T2, Tyrosine-protein phosphatase non-receptor type 1 (Homo sapiens) (UniProt P18031); assay: Inhibition of Homo sapiens (human) recombinant PTP1B assessed as decrease in free phosphate release at 10 uM by malachite staining relative to control
T2 sequence (whole entry): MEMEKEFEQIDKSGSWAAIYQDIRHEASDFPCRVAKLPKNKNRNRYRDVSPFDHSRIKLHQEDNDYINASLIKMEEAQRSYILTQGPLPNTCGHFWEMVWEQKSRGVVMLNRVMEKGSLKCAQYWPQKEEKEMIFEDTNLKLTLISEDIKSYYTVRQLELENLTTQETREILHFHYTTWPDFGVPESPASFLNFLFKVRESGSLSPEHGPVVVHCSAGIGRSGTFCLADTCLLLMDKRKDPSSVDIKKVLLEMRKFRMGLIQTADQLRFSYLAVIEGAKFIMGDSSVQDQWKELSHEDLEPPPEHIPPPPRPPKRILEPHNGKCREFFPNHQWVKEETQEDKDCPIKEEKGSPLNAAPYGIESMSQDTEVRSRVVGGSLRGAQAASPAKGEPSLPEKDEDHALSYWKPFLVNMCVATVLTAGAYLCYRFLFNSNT

## O=C(CSc1nc2ccccc2[nH]1)Nc1ccc(C(=O)O)cc1
[1]
  inhibition: 22.5%
[2]
  inhibition: 18.7%

## O=C(CSc1nc2ccccc2s1)Nc1ccc(C(=O)O)cc1
[1]
  inhibition: 39.6%
[2]
  inhibition: 66.4%

## O=C(CSc1nc2ccccc2s1)Nc1cc(C(=O)O)ccc1O
[1]
  inhibition: 29.2%
[2]
  inhibition: 53.9%

## O=C(CSc1nc2ccccc2s1)Nc1cccc(C(=O)O)c1
[1]
  inhibition: 59.2%
[2]
  inhibition: 24.2%

## Cc1cccc2[nH]c(SCC(=O)Nc3cc(C(=O)O)ccc3Cl)nc12
[1]
  inhibition: 31.4%
[2]
  inhibition: 20.9%

## O=C(CSc1nc2c([N+](=O)[O-])cccc2[nH]1)Nc1cc(C(=O)O)ccc1Cl
[1]
  inhibition: 37.6%
[2]
  inhibition: 36.6%

## O=C(CSc1nc2ccccc2[nH]1)Nc1cc(C(=O)O)ccc1O
[1]
  inhibition: 58.6%
[2]
  inhibition: 23.2%

## COc1cccc2[nH]c(SCC(=O)Nc3cc(C(=O)O)ccc3Cl)nc12
[1]
  inhibition: 26.6%
[2]
  inhibition: 62.7%

## O=C(CSc1nc2ccccc2s1)Nc1cc(C(=O)O)ccc1Cl
[1]
  inhibition: 28.7%
[2]
  inhibition: 56.2%

## O=C(CSc1nc2ccccc2[nH]1)Nc1cc(C(=O)O)ccc1Cl
[1]
  inhibition: 28.7%
[2]
  inhibition: 35.8%
